The NIST ThermoML archive (doi:10.1021/je400803f)

Experiment: xn = mol fraction of the nth substance listed
Conditions: 101 kPa, Liquid, Vibrating tube method

CCCC[N+]1(C)CCCC1.FC(F)(F)C(F)(F)[P-](F)(F)(F)(C(F)(F)C(F)(F)F)C(F)(F)C(F)(F)F + CN(C)C=O
mass density [kg/m3]
Conditions	308.15 K	313.15 K	318.15 K	323.15 K
x1 = 0.0165	–	973.88	968.76	963.52
x1 = 0.0379	–	1024.98	1019.76	1014.46
x1 = 0.0636	–	1077.52	1072.2	1066.82
x1 = 0.0999	–	1139.55	1134.13	1128.66
x1 = 0.1381	–	1193.09	1187.58	1182.02
x1 = 0.2002	–	1262.4	1256.85	1251.25
x1 = 0.3038	1351.43	1345.95	1340.13	1334.59
x1 = 0.3944	1404.36	1398.78	1393.18	1387.5
x1 = 0.4946	1449.18	1443.63	1438.04	1432.36
x1 = 0.5997	1485.78	1480.25	1474.66	1469.03
x1 = 0.6972	1512.87	1507.34	1501.77	1496.17
x1 = 0.7887	1534.11	1528.58	1523.04	1517.43
x1 = 0.8853	1553.16	1547.65	1542.09	1536.51
